Reference: US10342796B2, “Acrylanilide derivative, preparation method, and applications thereof in pharmacy” (Ancureall Pharmaceutical (Shanghai) Co., Ltd., priority 2015, dated 2019)
Read-outs that look alike come from different tables or passages of the source.

What was measured:
Assay in all cases: Growth inhibition GI50 in vitro (CCK8/MTT, 72 h)
Type in all cases: cell-based, human
H1975 (EGFR L858R/T790M) = conditions: EGFR mutant cell line, range of GI50, read-out: GI50 H1975
HCC827 (EGFR dE746-A750) = conditions: EGFR mutant cell line, range of GI50, read-out: GI50 HCC827
PC-9 (EGFR dE746-A750) = conditions: EGFR mutant cell line, range of GI50, read-out: GI50 PC-9
[1] = system: PC-9ER (EGFR delE746-A750/T790M); conditions: EGFR mutant cell line, range of GI50, read-out: GI50 PC9ER
N87 (HER2 Amp) = conditions: HER2 positive cell line, range of GI50, read-out: GI50 N87
AU565 (Her2 amp) = conditions: HER2 positive cell line, range of GI50, read-out: GI50 AU-565
SK-BR-3 (Her2 amp) = conditions: HER2 positive cell line, range of GI50, read-out: GI50 SK-BR-3
Experimental: Human lung adenocarcinoma cell line Calu-3 (ATCC) was cultured with 1×MEM complete medium (10% FBS, 1% double-antibiotics, 1% NEAA (Gibco), 2 mM glutamine and 1 mM of sodium pyruvate). Human breast cancer cell line SK-BR-3 was cultured with McCOY'S5A complete medium (10% FBS). Human colon cancer cell line SNU1040 (HER2 V777M positive) (ATCC) and human bronchoalveolar adenocarcinoma cell line NCI-H1781 (expressing HER2 exon 20 G776VC mutation) (ATCC) were cultured with 1×RPMI1640 complete medium (10% FBS), respectively.
The suspension cells were collected by centrifugation. The supernatant was discard and the cell pellet was resuspended and counted. Different cell concentrations (5˜10×10^4 cells/mL) were prepared according to the growth cycle of each cell line and then seeded on a 96-well plate (Corning), 100 μL/well. The cells were incubated over night at 37° C., 5% CO2. The compounds were added to the cells on the second day with 2 wells in parallel. The final concentration of organic solvent shall not exceed 1%. The cells were continually incubated for 72 h, and then subjected to MTT assay.
The present compounds and the reference compounds were dissolved with DMSO (Sigma), respectively. […] The storage concentration of compounds was 10 mM and kept at −20° C. They were diluted by 2 times or 10 times with serial dilution before using.
Dojindo CCK8 reagent kit was used as MTT assay. […] FC meter was used as microplate reader.
Adherent cell culture medium was discard and immediately replaced with fresh prepared medium which contains 10% CCK8 reagent (100 μL/well). For the suspension cells, CCK8 was directly added to 10% of the final concentration. The cells were continually incubated for 1˜4 h. When the color of control wells turned to dark yellow, the absorption value was measured at OD450 nm. The cell growth rate was calculated according to the following formula: cell growth rate (%)=100*(T−T0)/(C−T0), T=optical density of drug treatment cell well—optical density of blank control well; T0=optical density of cell well before drug treatment—optical density of blank control well; C=optical density of cell well of solvent control group—optical density of blank control well. […] The experiment was independently repeated 1˜3 times, and subject to biological statistical analysis.

[2] = system: A431 (EGFR WT, amplification and high expression); conditions: EGFR wild type cell line, range of GI50, read-out: GI50 A431
A549 (EGFR WT) = conditions: EGFR wild type cell line, range of GI50, read-out: GI50 A549
[3] = system: H1299 (EGFR wt, Nras Q61K); conditions: EGFR wild type cell line, range of GI50, read-out: GI50 H1299
[4] = system: H460 (EGFR wt, Kras G61H); conditions: EGFR wild type cell line, range of GI50, read-out: GI50 H460

GI50 (H1975 (EGFR L858R/T790M); Homo sapiens, NCI-H1975) [nM]	GI50 (HCC827 (EGFR dE746-A750); Homo sapiens, HCC827) [nM]	GI50 (PC-9 (EGFR dE746-A750); Homo sapiens) [nM]	GI50 ([1]; Homo sapiens, PC-9/ER) [nM]	GI50 (SK-BR-3 (Her2 amp); Homo sapiens, SK-BR-3) [nM]	GI50 ([2]; Homo sapiens, A-431) [nM]	GI50 (A549 (EGFR WT); Homo sapiens, A549) [nM]	GI50 ([3]; Homo sapiens, NCI-H1299) [nM]	GI50 ([4]; Homo sapiens, NCI-H460) [nM]	Compound	GI50 (N87 (HER2 Amp); Homo sapiens) [nM]	GI50 (AU565 (Her2 amp); Homo sapiens, AU565) [nM]	also measured
100 to 1000	100 to 1000	100 to 1000	100 to 1000	100 to 1000	> 1000	> 1000	> 1000	> 1000	C=CC(=O)Nc1cc(Nc2nccc(-n3ccc4ccc(C#N)cc43)n2)c(OC)cc1N(C)CCN(C)C [Compound 60, N-{5-[4-(6-cyano-indol-1-yl)-pyrimidin-2-ylamino]-2-[(2-dimethylamino-ethyl)-methyl-amino]-4-methoxyl-phenyl}-acrylamidel]	100 to 1000	100 to 1000	
10 to 100	< 10	< 10	< 10	10 to 100	10 to 100	> 1000	> 1000	> 1000	C=CC(=O)Nc1cc(Nc2cc(Nc3ccc(F)c(Cl)c3)ncn2)c(OC)cc1N1CCN(C)CC1 [Compound 145, N-(5-(6-(3-chloro-4-fluoro-phenylamino)-pyrimidin-4-ylamino)-4-methoxyl-2-(4-methyl-piperazin-1-yl)-phenyl)-acrylamide]	< 10	10 to 100	
< 10	< 10	< 10	< 10	< 10	10 to 100	> 1000	> 1000	> 1000	C=CC(=O)Nc1cc(Nc2cc(Nc3ccc(F)c(Cl)c3)ncn2)c(OC)cc1N1CCCN(C)CC1 [Compound 144, N-(5-(6-(3-chloro-4-fluoro-phenylamino)-pyrimidin-4-ylamino)-2-(4-methyl-[1,4]diazepin-1-yl)-4-methoxyl-phenyl)-acrylamide]	< 10	< 10	
10 to 100	< 10	< 10	< 10	< 10	100 to 1000	> 1000	> 1000	> 1000	C=CC(=O)Nc1cc(Nc2cc(-c3cn(C)c4ccc(F)cc34)ncn2)c(OC)cc1N(C)CCN(C)C [Compound 188, N-(2-((2-dimethylamino-ethyl)-methylamino)-5-(6-(5-fluoro-1-methyl-1H-indol-3-yl)-pyrimidin-4-ylamino)-4-methoxyl-phenyl)-acrylamide]	10 to 100	10 to 100	
10 to 100	< 10	< 10	10 to 100	10 to 100	100 to 1000	> 1000	> 1000	> 1000	C=CC(=O)Nc1cc(Nc2cc(Nc3cccc(C(F)(F)F)c3)ncn2)c(OC)cc1N(C)CCN(C)C [Compound 134]	10 to 100	10 to 100	
10 to 100	10 to 100	10 to 100	10 to 100	100 to 1000	100 to 1000	> 1000	> 1000	> 1000	C=CC(=O)Nc1cc(Nc2nccc(-n3ccc4cc(F)c(F)cc43)n2)c(OC)cc1N(C)CCN(C)C [Compound 103, N-(5-(4-(5,6-difluoro-1H-indol-1-yl)-pyrimidin-2-ylamino)-2-(2-(dimethylamino-ethyl)-methyl-amino)-4-methoxyl-phenyl)-acrylamide]	10 to 100	100 to 1000	
10 to 100	10 to 100	100 to 1000	10 to 100	100 to 1000	100 to 1000	> 1000	> 1000	> 1000	C=CC(=O)Nc1cc(Nc2nccc(-n3cc(C)c4ccccc43)n2)c(OC)cc1N(C)CCN(C)C [Compound 57, N-(5-(4-(3-methyl-1H-indol-1-yl)-pyrimidin-2-ylamino)-2-(2-(dimethylamino-ethyl)-methyl-amino)-4-methoxyl-phenyl)-acrylamide]	100 to 1000	100 to 1000	
10 to 100	10 to 100	10 to 100	10 to 100	100 to 1000	100 to 1000	> 1000	> 1000	> 1000	C=CC(=O)Nc1cc(Nc2nccc(-n3ccc4ccc(OC)cc43)n2)c(OC)cc1N(C)CCN(C)C [Compound 58]	100 to 1000	100 to 1000	
10 to 100	< 10	10 to 100	10 to 100	10 to 100	100 to 1000	> 1000	> 1000	> 1000	C=CC(=O)Nc1cc(Nc2nccc(-n3ccc4ccc(Br)cc43)n2)c(OC)cc1N(C)CCN(C)C [Compound 62, N-(5-(4-(6-bromo-1H-indol-1-yl)-pyrimidin-2-ylamino)-2-((2-(dimethylamino)ethyl)-methyl-amino)-4-methoxyl-phenyl)-acrylamide]	10 to 100	10 to 100	
10 to 100	< 10	< 10	< 10	10 to 100	100 to 1000	> 1000	> 1000	> 1000	C=CC(=O)Nc1cc(Nc2cc(-c3cn(CC)c4ccccc34)ncn2)c(OC)cc1N(C)CCN(C)C [Compound 181, N-{2-((2-dimethylamino-ethyl)-methylamino)-5-[6-(1-ethyl-1H-indol-3-yl)-pyrimidin-4-ylamino]-4-methoxyl-phenyl}-acrylamide]	10 to 100	10 to 100	
									C#Cc1cccc(Nc2ccnc(Nc3cc(NC(=O)C=C)c(N(C)CCN(C)C)cc3OC)n2)c1 [Compound 8, N-(5-(4-(3-acetenyl-phenylamino)-pyrimidin-2-ylamino)-2-(2-(dimethylamino-ethyl)-methyl-amino)-4-methoxyl-phenyl)-acrylamide]			GI50 (H1975 (EGFR L858R/T790M)): 10 to 100 nM; GI50 (HCC827 (EGFR dE746-A750)): 10 to 100 nM; GI50 (PC-9 (EGFR dE746-A750)): 10 to 100 nM; GI50 [1]: < 10 nM; GI50 (N87 (HER2 Amp)): 10 to 100 nM; GI50 (AU565 (Her2 amp)): 100 to 1000 nM; GI50 (SK-BR-3 (Her2 amp)): 10 to 100 nM; GI50 [2]: 100 to 1000 nM; GI50 (A549 (EGFR WT)): > 1000 nM; GI50 [3]: > 1000 nM; GI50 [4]: > 1000 nM
< 10	< 10	< 10	< 10	< 10	10 to 100	> 1000	> 1000	> 1000	C#Cc1cccc(Nc2cc(Nc3cc(NC(=O)C=C)c(N(C)CCN(C)C)cc3OC)ncn2)c1 [Compound 135, N-(5-(6-(3-alkynyl-phenylamino)-pyrimidin-4-ylamino)-2-((2-dimethylamino-ethyl)-methyl-amino)-4-methoxyl-phenyl)-acrylamide]	10 to 100	< 10	
